Test results published in ChEMBL document CHEMBL3046711, “Novel glitazones: glucose uptake and cytotoxic activities, and structureactivity relationships” (2012).
≈ marks a conversion by molar mass, not a printed value.

Key:
Assay type in all cases: functional
A549 = assay: Cytotoxicity against Homo sapiens (human) A549 cells after 3 days by SRB assay; settings: A549, 72 h
Hemi-diaphragm [1] = assay: Induction of glucose uptake in Rattus norvegicus Wistar (rat) hemi-diaphragm at 2 mg after 45 min by GOD/POD enzymatic method
Hemi-diaphragm [2] = assay: Induction of glucose uptake in Rattus norvegicus Wistar (rat) hemi-diaphragm at 2 mg after 45 min by GOD/POD enzymatic method in presence of insulin

| SMILES | CC50 (A549) [µg/mL] | Activity (Hemi-diaphragm [1]) [mg/dL] | Activity (Hemi-diaphragm [2]) [mg/dL] |
| --- | --- | --- | --- |
| O=C1NC(=O)/C(=C/c2ccc(OCCOc3ccccc3Cl)cc2)S1 | 100 (≈ 266 µM) | 6 | 22.5 |
| CN(CCOc1ccc(CC2SC(=O)NC2=O)cc1)c1ccccn1 (stereo not given) [ROSIGLITAZONE] |  | 15.5 | 37 |
